The assay deals with Human factor D (Homo sapiens (Human), UniProt P00746). The experiment in a line: Human Factor D Assay. It is filed as biochemical. The following applies: Human factor D 80 nM, substrate Z-L-Lys-SBzl, assay of Example 12. The procedure: Example 12. Human Factor D Assay
Human factor D (purified from human serum, Complement Technology, Inc.) at 80 nM final concentration is incubated with test compound at various concentrations for 5 minutes at room temperature in 50 mM Tris, 1M NaCl, pH 7.5. A synthetic substrate Z-L-Lys-SBzl and DTNB (Ellman's reagent) are added to final concentrations of 100 μM each. The increase in color is recorded at OD405 nm in a microplate in kinetic mode over 30 minutes with 30 second time points in a spectrofluorimeter. IC50 values are calculated by non-linear regression from the percentage of inhibition of complement factor D activity as a function of test compound concentration.

SMILES strings stand for the structures. pIC50: −log10 of the molar value.

The term pIC50 denotes the negative decadic logarithm of the IC50, by convention in mol/L. Lower therefore signals a large IC50.

Chain of Human factor D (P00746 26-253): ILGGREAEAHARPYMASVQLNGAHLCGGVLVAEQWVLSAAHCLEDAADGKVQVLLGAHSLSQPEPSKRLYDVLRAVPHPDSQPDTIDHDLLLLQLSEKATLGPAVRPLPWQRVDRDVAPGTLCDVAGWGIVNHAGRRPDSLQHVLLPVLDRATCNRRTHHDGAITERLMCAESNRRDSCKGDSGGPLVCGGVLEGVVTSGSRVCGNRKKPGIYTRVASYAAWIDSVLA

For `NC(=O)c1nn(CC(=O)N2[C@@H]3C[C@@H]3C[C@H]2C(=O)Nc2cccc(Cl)n2)c2ccc(C#Cc3ncccn3)cc12` [Compound 56, 1-(2-((1R,3S,5R)-3-(6-chloropyridin-2-ylcarbamoyl)-2-azabicyclo[3.1.0]hexan-2-yl)-2-oxoethyl)-5-(pyrimidin-2-ylethynyl)-1H-indazole-3-carboxamide], the pIC50 is above 6.00.

For the compound `COc1nc(C#Cc2ccc3c(c2)c(C(N)=O)nn3CC(=O)N2C[C@H](F)C[C@H]2C(=O)Nc2cccc(-c3ccccc3Cl)c2F)ncc1F` [Compound 78, 1-(2-((2S,4R)-2-(2′-chloro-2-fluorobiphenyl-3-ylcarbamoyl)-4-fluoropyrrolidin-1-yl)-2-oxoethyl)-5-((5-fluoro-4-methoxypyrimidin-2-yl)ethynyl)-1H-indazole-3-carboxamide], the pIC50 was above 6.00. Under `NC(=O)c1nn(CC(=O)N2C[C@H](F)C[C@H]2C(=O)Nc2cccc(-c3ccccc3Cl)n2)c2ccc(C#Cc3ncccn3)cc12` [Compound 47, 1-(2-((2S,4R)-2-(6-(2-chlorophenyl)pyridin-2-ylcarbamoyl)-4-fluoropyrrolidin-1-yl)-2-oxoethyl)-5-(pyrimidin-2-ylethynyl)-1H-indazole-3-carboxamide] stands above 6.00.

Turning to `NC(=O)c1nn(CC(=O)N2C[C@H](F)C[C@H]2C(=O)Nc2cccc(Cl)n2)c2ccc(C#Cc3ncc(F)cn3)cc12` [Compound 88, 1-(2-((2S,4R)-2-(6-chloropyridin-2-ylcarbamoyl)-4-fluoropyrrolidin-1-yl)-2-oxoethyl)-5-((5-fluoropyrimidin-2-yl)ethynyl)-1H-indazole-3-carboxamide], the negative logarithm of the IC50 (pIC50) was above 6.00.

Turning to `NC(=O)c1nn(CC(=O)N2[C@@H]3C[C@@H]3C[C@H]2C(=O)Nc2cccc(-c3ccccc3Cl)c2F)c2ccc(C#Cc3ncc(F)cn3)cc12` [Compound 53, 1-(2-((1R,3S,5R)-3-(2′-chloro-2-fluorobiphenyl-3-ylcarbamoyl)-2-azabicyclo[3.1.0]hexan-2-yl)-2-oxoethyl)-5-((5-fluoropyrimidin-2-yl)ethynyl)-1H-indazole-3-carboxamide], the pIC50 is above 6.00.

`NC(=O)c1nn(CC(=O)N2C[C@H](F)C[C@H]2C(=O)N2CCc3c([nH]c4ccccc34)C2)c2ccc(C#Cc3ncccn3)cc12` [Compound 31, 1-(2-((2S,4R)-4-fluoro-2-(2,3,4,9-tetrahydro-1H-pyrido[3,4-b]indole-2-carbonyl)pyrrolidin-1-yl)-2-oxoethyl)-5-(pyrimidin-2-ylethynyl)-1H-indazole-3-carboxamide] gave a pIC50 below 5.00. Turning to `NC(=O)c1nn(CC(=O)N2C[C@H](F)C[C@H]2C(=O)Nc2cccc(OC(F)(F)F)c2F)c2ccc(C#Cc3ncccn3)cc12` [Compound 38, 1-(2-((2S,4R)-4-fluoro-2-(2-fluoro-3-(trifluoromethoxy)phenyl-carbamoyl)pyrrolidin-1-yl)-2-oxoethyl)-5-(pyrimidin-2-ylethynyl)-1H-indazole-3-carboxamide], the pIC50 was above 6.00.

`CC(=O)c1cn(CC(=O)N2C[C@H](F)C[C@H]2C(=O)NCc2cccc(Cl)c2F)c2ccc(C#Cc3ncc(O)cn3)cc12` [Compound 13, (2S,4R)-1-(2-(3-acetyl-5-((5-hydroxypyrimidin-2-yl)ethynyl)-1H-indol-1-yl)acetyl)-N-(3-chloro-2-fluorobenzyl)-4-fluoropyrrolidine-2-carboxamide] showed a pIC50 above 6.00.

In turn, `C#Cc1cccc(NC(=O)[C@@H]2C[C@@H](F)CN2C(=O)Cn2nc(C(N)=O)c3ccncc32)c1F` [Compound 15, 1-(2-((2S,4R)-2-(3-ethynyl-2-fluorophenylcarbamoyl)-4-fluoropyrrolidin-1-yl)-2-oxoethyl)-1H-pyrazolo[3,4-c]pyridine-3-carboxamide] gave a pIC50 above 6.00. Compound `NC(=O)c1nn(CC(=O)N2C[C@H](F)C[C@H]2C(=O)NCc2cccc(Cl)c2F)c2ccc(C#Cc3ccc(F)cn3)cc12` [Compound 35, 1-(2-((2S,4R)-2-(3-chloro-2-fluorobenzylcarbamoyl)-4-fluoropyrrolidin-1-yl)-2-oxoethyl)-5-((5-fluoropyridin-2-yl)ethynyl)-1H-indazole-3-carboxamide] had a pIC50 above 6.00.

With `NC(=O)c1nn(CC(=O)N2C[C@H](F)C[C@H]2C(=O)NCc2cccc(Cl)c2F)c2ccc(C#Cc3cn[nH]c3)cc12` [Compound 29, 5-((1H-pyrazol-4-yl)ethynyl)-1-(2-((2S,4R)-2-(3-chloro-2-fluorobenzylcarbamoyl)-4-fluoropyrrolidin-1-yl)-2-oxoethyl)-1H-indazole-3-carboxamide], the pIC50 is above 6.00.

In turn, `NC(=O)c1nn(CC(=O)N2C[C@H](F)C[C@H]2C(=O)Nc2ccc3cccc(Cl)c3n2)c2ccc(C#Cc3ncc(F)cn3)cc12` [Compound 71, 1-(2-((2S,4R)-2-(8-chloroquinolin-2-ylcarbamoyl)-4-fluoropyrrolidin-1-yl)-2-oxoethyl)-5-((5-fluoropyrimidin-2-yl)ethynyl)-1H-indazole-3-carboxamide] showed a pIC50 above 6.00. The compound `NC(=O)c1nn(CC(=O)N2C[C@H](F)C[C@H]2C(=O)NCc2cccc(Cl)c2F)c2cnc(C#Cc3ncccn3)cc12` [Compound 32, 1-(2-((2S,4R)-2-(3-chloro-2-fluorobenzylcarbamoyl)-4-fluoropyrrolidin-1-yl)-2-oxoethyl)-5-(pyrimidin-2-ylethynyl)-1H-pyrazolo[3,4-c]pyridine-3-carboxamide] had a pIC50 above 6.00. `NC(=O)c1nn(CC(=O)N2[C@@H]3C[C@@H]3C[C@H]2C(=O)Nc2cccc(Cl)n2)c2ccc(C#Cc3cccnn3)cc12` [Compound 77, 1-(2-((1R,3S,5R)-3-(6-chloropyridin-2-ylcarbamoyl)-2-azabicyclo[3.1.0]hexan-2-yl)-2-oxoethyl)-5-(pyridazin-3-ylethynyl)-1H-indazole-3-carboxamide] gave a pIC50 above 6.00. The compound `C#Cc1ccc2c(C(C)=O)cn(CC(=O)N3C[C@H](F)C[C@H]3C(=O)NCc3cccc(Cl)c3F)c2c1` [Compound 1, (2S,4R)-1-(2-(3-acetyl-6-ethynyl-1H-indol-1-yl)acetyl)-N-(3-chloro-2-fluorobenzyl)-4-fluoropyrrolidine-2-carboxamide] had a pIC50 above 6.00.

Compound `NC(=O)c1nn(CC(=O)N2C[C@H](F)C[C@H]2C(=O)Nc2cccc(-c3cccc(Cl)c3)c2F)c2ccc(C#Cc3ncccn3)cc12` [Compound 30, 1-(2-((2S,4R)-2-(3′-chloro-2-fluorobiphenyl-3-ylcarbamoyl)-4-fluoropyrrolidin-1-yl)-2-oxoethyl)-5-(pyrimidin-2-ylethynyl)-1H-indazole-3-carboxamide] had a pIC50 above 6.00. `CC(=O)c1cn(CC(=O)N2C[C@H](F)C[C@H]2C(=O)NCc2cccc(Cl)c2F)c2ccc(C#Cc3c[nH]nc3C#N)cc12` [Compound 24, (2S,4R)-1-(2-(3-acetyl-5-((3-cyano-1H-pyrazol-4-yl)ethynyl)-1H-indol-1-yl)acetyl)-N-(3-chloro-2-fluorobenzyl)-4-fluoropyrrolidine-2-carboxamide]: the negative-log IC50 (pIC50) is above 6.00. Take `CC(=O)c1cn(CC(=O)N2C[C@H](F)C[C@H]2C(=O)NCc2cccc(Cl)c2F)c2ccc(C#Cc3c[nH]c(=O)nc3N)cc12` [Compound 7, (2S,4R)-1-(2-(3-acetyl-5-((4-amino-2-oxo-1,2-dihydropyrimidin-5-yl)ethynyl)-1H-indol-1-yl)acetyl)-N-(3-chloro-2-fluorobenzyl)-4-fluoropyrrolidine-2-carboxamide]: the pIC50 was above 6.00.

Turning to `NC(=O)c1nn(CC(=O)N2[C@@H]3C[C@@H]3C[C@H]2C(=O)Nc2cccc(Br)n2)c2ccc(C#Cc3ccc(F)cn3)cc12` [Compound 58, 1-(2-((1R,3S,5R)-3-(6-bromopyridin-2-ylcarbamoyl)-2-azabicyclo[3.1.0]hexan-2-yl)-2-oxoethyl)-5-((5-fluoropyridin-2-yl)ethynyl)-1H-indazole-3-carboxamide], the pIC50 was above 6.00.

Regarding `NC(=O)c1nn(CC(=O)N2C[C@H](F)C[C@H]2C(=O)Nc2cccc(Br)n2)c2ccc(C#Cc3ncc(F)cn3)cc12` [Compound 46, 1-(2-((2S,4R)-2-(6-bromopyridin-2-ylcarbamoyl)-4-fluoropyrrolidin-1-yl)-2-oxoethyl)-5-((5-fluoropyrimidin-2-yl)ethynyl)-1H-indazole-3-carboxamide], the pIC50 is above 6.00. Take `NC(=O)c1nn(CC(=O)N2C[C@H](F)C[C@H]2C(=O)Nc2cccc(-c3cn[nH]c3)n2)c2ccc(C#Cc3ncccn3)cc12` [Compound 50, 1-(2-((2S,4R)-2-(6-(1H-pyrazol-4-yl)pyridin-2-ylcarbamoyl)-4-fluoropyrrolidin-1-yl)-2-oxoethyl)-5-(pyrimidin-2-ylethynyl)-1H-indazole-3-carboxamide]: the pIC50 was above 6.00. In the case of `NC(=O)c1nn(CC(=O)N2[C@@H]3C[C@@H]3C[C@H]2C(=O)Nc2cccc(Br)n2)c2ccc(C#Cc3ccc(C(F)(F)F)cn3)cc12` [Compound 59, 1-(2-((1R,3S,5R)-3-(6-bromopyridin-2-ylcarbamoyl)-2-azabicyclo[3.1.0]hexan-2-yl)-2-oxoethyl)-5-((5-(trifluoromethyl)pyridin-2-yl)ethynyl)-1H-indazole-3-], the pIC50 was above 6.00. `NC(=O)c1nn(CC(=O)N2C[C@H](F)C[C@H]2C(=O)NCc2cccc(Cl)c2F)c2cnc(C#Cc3ccccc3)cc12` [Compound 67, 1-(2-((2S,4R)-2-(3-chloro-2-fluorobenzylcarbamoyl)-4-fluoropyrrolidin-1-yl)-2-oxoethyl)-5-(phenylethynyl)-1H-pyrazolo[3,4-c]pyridine-3-carboxamide] showed a pIC50 above 6.00. `CC(=O)c1cn(CC(=O)N2C[C@H](F)C[C@H]2C(=O)NCc2cccc(Cl)c2F)c2ccc(C#Cc3ccccc3)cc12` [Compound 14, (2S,4R)-1-(2-(3-acetyl-5-(phenylethynyl)-1H-indol-1-yl)acetyl)-N-(3-chloro-2-fluorobenzyl)-4-fluoropyrrolidine-2-carboxamide] gave a negative logarithm of the IC50 (pIC50) above 6.00.

The values above are taken from patent US9828396B2, “Alkyne compounds for treatment of complement mediated disorders” (Achillion Pharmaceuticals, Inc., priority 2014, dated 2017).
